Laboratory results: patent US5324832A, “Muscarinic antagonists” (priority 1991, dated 1994)

Key:
gastric acid production = conditions: clinical; in words; cited from earlier work
m1 muscarinic receptors = target: T1, m1 muscarinic receptors (Rattus norvegicus, UniProt P08482); assay: Irreversible labelling: [3H]NMS saturation of treated vs. control rat forebrain membranes; assay type: binding; conditions: in words
T1 sequence (P08482 1-460): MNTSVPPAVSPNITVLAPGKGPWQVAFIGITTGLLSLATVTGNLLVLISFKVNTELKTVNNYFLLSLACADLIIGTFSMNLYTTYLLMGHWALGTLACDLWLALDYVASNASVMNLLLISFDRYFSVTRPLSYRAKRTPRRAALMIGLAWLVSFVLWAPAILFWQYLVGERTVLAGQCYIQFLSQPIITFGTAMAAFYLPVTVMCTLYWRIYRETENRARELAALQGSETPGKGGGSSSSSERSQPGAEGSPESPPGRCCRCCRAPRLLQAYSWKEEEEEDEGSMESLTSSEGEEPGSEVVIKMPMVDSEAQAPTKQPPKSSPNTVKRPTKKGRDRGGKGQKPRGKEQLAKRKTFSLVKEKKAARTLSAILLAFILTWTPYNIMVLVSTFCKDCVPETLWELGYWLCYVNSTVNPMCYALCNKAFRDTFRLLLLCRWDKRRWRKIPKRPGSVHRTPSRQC
Description: When incubated with membranes from rat forebrain tissue […] followed by thorough washing, compound 41a caused an unrecoverable reduction in the Bmax at m1 receptors of 90-95% (from saturation of treated vs. control membranes with [3H]NMS).

SMILES	inhibition of gastric acid production (literature) (gastric acid production)	chemical affinity labelling of m1 receptors (m1 muscarinic receptors)
CN1CCN(CC(=O)N2c3ccccc3C(=O)Nc3cccnc32)CC1 [pirenzepine]	useful clinically in the inhibition of gastric acid production	–
O=C1Nc2cccnc2N(C(=O)CN2CCN(CCCCCCCCCCNC(=S)Nc3cccc(N=C=S)c3)CC2)c2ccccc21 [Compound 41a, n=10, 5,11-Dihydro-11-[[4-[10-[(3-isothiocyanatophenyl)aminothiocarbonylamino]decyl]-1-piperazinyl]acetyl]-6H-pyrido[2,3-b][1,4]-benzodiazepine-6-one]	–	potent chemical affinity label for ml receptors
